Earlier results on three molecules are cited in patent publication US6709866B2, “Methods for enhancing survival of a neuron” (Aegera Therapeutics, Inc., priority 1996, dated 2004).

Data set [1] has as its system primary hippocampal, cortical and septal cultures. The following applies: Cheng et al. 1994.
The test system of data set [2] is hippocampal cultures. As to conditions: 100 pM.
The subject of data set [3] is motoneurons. The following applies: literature.

The structures appear in SMILES notation.

Turning to `O=c1c(-c2ccc(O)cc2)coc2cc(O)cc(O)c12` [genistein], in data set [1], the “effect on the neuroprotective effects of K252-like compounds” value is “blocked”.
With `C[C@]12O[C@H](C[C@]1(O)C(=O)O)n1c3ccccc3c3c4c(c5c6ccccc6n2c5c31)CNC4=O` [K252b], the “tyrosine phosphorylation of multiple proteins (40 to 200 kDa)” value in data set [2] is on record as “enhance tyrosine phosphorylation”.
For the molecule `CCSCc1ccc2c(c1)c1c3c(c4c5cc(CSCC)ccc5n5c4c1n2[C@H]1C[C@](O)(C(=O)OC)[C@]5(C)O1)CNC3=O` [CEP1347], the “motoneuron death and loss of ChAT in vivo” value in data set [3] was “prevents developmentally programmed motoneuron death and loss of ChAT in adult motoneurons”.
